Target: CFTR-mediated chloride transport (Homo sapiens, UniProt P13569)
Format: cell-based
Conditions: enteroid cells incubated with test compound 18-24 hours, acute 10 μM forskolin and 300 nM Compound III; for Max. Activity: % of chloride transport with 3 μM Compound A, 3 μM Compound II and 300 nM acute Compound III triple combination control
How it was run: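 Membrane-potential fluorescence AUC over 15 min quantified CFTR chloride transport after acute forskolin (10 μM), IBMX (100 μM) and Compound III (300 nM) in chloride-free buffer. Human enteroid cells were pretreated with compound for 18–24 h; % Activity is relative to 3 μM Compound A + 3 μM Compound II + 300 nM Compound III.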

CFTR-mediated chloride transport, sequence (P13569 whole entry, looked up): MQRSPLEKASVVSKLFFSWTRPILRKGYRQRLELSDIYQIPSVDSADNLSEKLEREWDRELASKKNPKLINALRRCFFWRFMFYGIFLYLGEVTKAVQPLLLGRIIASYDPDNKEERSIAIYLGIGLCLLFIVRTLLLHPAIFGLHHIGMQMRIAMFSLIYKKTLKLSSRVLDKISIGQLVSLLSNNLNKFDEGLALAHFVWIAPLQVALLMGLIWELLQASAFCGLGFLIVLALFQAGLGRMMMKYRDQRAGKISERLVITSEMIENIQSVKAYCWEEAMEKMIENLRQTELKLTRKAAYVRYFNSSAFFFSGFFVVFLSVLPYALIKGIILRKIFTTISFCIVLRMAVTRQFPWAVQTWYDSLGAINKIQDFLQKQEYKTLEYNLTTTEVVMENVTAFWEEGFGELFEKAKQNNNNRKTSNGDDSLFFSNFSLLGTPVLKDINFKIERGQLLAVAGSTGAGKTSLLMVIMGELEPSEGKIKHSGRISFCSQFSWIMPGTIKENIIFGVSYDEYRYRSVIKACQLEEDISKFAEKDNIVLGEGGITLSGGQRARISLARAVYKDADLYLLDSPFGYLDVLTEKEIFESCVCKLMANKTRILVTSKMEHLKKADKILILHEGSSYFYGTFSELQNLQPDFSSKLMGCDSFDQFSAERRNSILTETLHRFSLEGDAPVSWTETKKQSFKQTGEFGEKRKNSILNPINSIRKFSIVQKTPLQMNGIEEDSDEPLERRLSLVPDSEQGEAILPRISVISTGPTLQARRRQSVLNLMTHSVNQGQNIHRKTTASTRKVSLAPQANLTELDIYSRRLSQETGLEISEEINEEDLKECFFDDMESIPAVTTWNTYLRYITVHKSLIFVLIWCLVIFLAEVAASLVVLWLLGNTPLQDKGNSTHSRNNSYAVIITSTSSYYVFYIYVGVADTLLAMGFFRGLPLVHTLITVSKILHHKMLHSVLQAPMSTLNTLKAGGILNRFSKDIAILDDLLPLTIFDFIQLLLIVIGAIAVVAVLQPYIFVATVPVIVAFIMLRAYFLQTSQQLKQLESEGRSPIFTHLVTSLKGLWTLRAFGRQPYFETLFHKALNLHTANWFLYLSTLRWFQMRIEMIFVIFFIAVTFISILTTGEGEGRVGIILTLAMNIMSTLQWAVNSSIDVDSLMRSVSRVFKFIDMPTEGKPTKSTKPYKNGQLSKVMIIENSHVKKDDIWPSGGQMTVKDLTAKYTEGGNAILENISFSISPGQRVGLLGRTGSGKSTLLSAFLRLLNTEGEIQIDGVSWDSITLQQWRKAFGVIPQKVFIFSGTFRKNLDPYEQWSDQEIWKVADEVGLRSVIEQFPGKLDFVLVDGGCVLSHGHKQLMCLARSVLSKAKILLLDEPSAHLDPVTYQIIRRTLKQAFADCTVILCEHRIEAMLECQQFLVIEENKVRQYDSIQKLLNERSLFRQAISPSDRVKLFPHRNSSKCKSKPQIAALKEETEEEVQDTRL

Compound | EC50 | Max. Activity
CC1(C)C[C@H]2CCCCn3cc(cn3)S(=O)(=O)NC(=O)c3ccc(-n4ccc(OCCC5(C(F)(F)F)CC5)n4)nc3N1C2 (single isomer, unassigned) [Compound 135, 21,21-dimethyl-4-(3-{2-[1-(trifluoromethyl)cyclopropyl]ethoxy}-1H-pyrazol-1-yl)-10λ^6-thia-1,3,9,13,14-pentaazatetracyclo[17.2.1.111,14.02,7]tricosa-2,4,6,11(23),12-pentaene-8,10,10-trione] | < 1000 nM | +++ (+++ is >60%)
CC1(C)CC[C@H]2CCCNc3cccc(n3)S(=O)(=O)NC(=O)c3ccc(-n4ccc(OCCC(C5CC5)C5CC5)n4)nc3N21 (single isomer, unassigned) [Compound 136, 8-[3-(3,3-dicyclopropylpropoxy)-1H-pyrazol-1-yl]-12,12-dimethyl-2λ^6-thia-3,9,11,19,24-pentaazatetracyclo[18.3.1.05,10.011,15]tetracosa-1(23),5(10),6,8,20(24),21-hexaene-2,2,4-trione] | < 1000 nM | +++ (+++ is >60%)
CC1(C)CC[C@H]2CCCNc3cccc(n3)S(=O)(=O)NC(=O)c3ccc(-n4ccc(OCCC(C5CC5)C5CC5)n4)nc3N21 (single isomer, unassigned) [Compound 137, 8-[3-(3,3-Dicyclopropylpropoxy)-1H-pyrazol-1-yl]-12,12-dimethyl-2λ^6-thia-3,9,11,19,24-pentaazatetracyclo[18.3.1.05,10.011,15]tetracosa-1(23),5(10),6,8,20(24),21-hexaene-2,2,4-trione] | > 3000 nM | + (+ is <30%)
CN1CCC[C@H]2CN(c3nc(-n4ccc(OCCC5(C(F)(F)F)CC5)n4)ccc3C(=O)NS(=O)(=O)c3cccc1n3)C(C)(C)C2 (single isomer, unassigned) [Compound 138, 12,12,18-Trimethyl-8-(3-{2-[1-(trifluoromethyl)cyclopropyl]ethoxy}-1H-pyrazol-1-yl)-2λ^6-thia-3,9,11,18,23-pentaazatetracyclo[17.3.1.111,14.05,10]tetracosa-1(23),5(10),6,8,19,21-hexaene-2,2,4-trione] | > 3000 nM | + (+ is <30%)
CN1CCC[C@H]2CN(c3nc(-n4ccc(OCCC5(C(F)(F)F)CC5)n4)ccc3C(=O)NS(=O)(=O)c3cccc1n3)C(C)(C)C2 (single isomer, unassigned) [Compound 139, 12,12,18-trimethyl-8-(3-{2-[1-(trifluoromethyl)cyclopropyl]ethoxy}-1H-pyrazol-1-yl)-2λ^6-thia-3,9,11,18,23-pentaazatetracyclo[17.3.1.111,14.05,10]tetracosa-1(23),5(10),6,8,19,21-hexaene-2,2,4-trione] | < 1000 nM | +++ (+++ is >60%)
CC(C)(C)CCC[C@H]1CCN(c2ccc3c(n2)N2C[C@@H](CCCNc4cccc(n4)S(=O)(=O)NC3=O)CC2(C)C)C1=O (single isomer, unassigned) [Compound 145] | < 1000 nM | +++ (+++ is >60%)
CC(C)(C)CCC[C@H]1CCN(c2ccc3c(n2)N2C[C@@H](CCCNc4cccc(n4)S(=O)(=O)NC3=O)CC2(C)C)C1=O (single isomer, unassigned) [Compound 146] | < 1000 nM | +++ (+++ is >60%)
Cc1ccc2nc1S(=O)(=O)NC(=O)c1ccc(-n3ccc(OCCC4(C(F)(F)F)CC4)n3)nc1N1C[C@H](CCCN2)CC1(C)C (single isomer, unassigned) [Compound 148, 12,12,22-trimethyl-8-(3-{2-[1-(trifluoromethyl)cyclopropyl]ethoxy}-1H-pyrazol-1-yl)-2λ^6-thia-3,9,11,18,23-pentaazatetracyclo[17.3.1.111,14.05,10]tetracosa-1(23),5(10),6,8,19,21-hexaene-2,2,4-trione] | > 3000 nM | + (+ is <30%)
Cc1ccc2nc1S(=O)(=O)NC(=O)c1ccc(-n3ccc(OCCC4(C(F)(F)F)CC4)n3)nc1N1C[C@H](CCCN2)CC1(C)C (single isomer, unassigned) [Compound 149, 12,12,22-trimethyl-8-(3-{2-[1-(trifluoromethyl)cyclopropyl]ethoxy}-1H-pyrazol-1-yl)-2λ^6-thia-3,9,11,18,23-pentaazatetracyclo[17.3.1.111,14.05,10]tetracosa-1(23),5(10),6,8,19,21-hexaene-2,2,4-trione] | < 1000 nM | +++ (+++ is >60%)
Cc1cc2nn1CCC[C@H]1CN(c3nc(-n4ccc(OCCC5(C(F)(F)F)CC5)n4)ccc3C(=O)NS2(=O)=O)C(C)(C)C1 (single isomer, unassigned) [Compound 150, 13,20,20-Trimethyl-4-(3-{2-[1-(trifluoromethyl)cyclopropyl]ethoxy}-1H-pyrazol-1-yl)-10λ^6-thia-1,3,9,14,22-pentaazatetracyclo[16.2.1.111,14.02,7]docosa-2,4,6,11(22),12-pentaene-8,10,10-trione] | 1000 to 3000 nM | + (+ is <30%)
Cc1cc2nn1CCC[C@H]1CN(c3nc(-n4ccc(OCCC5(C(F)(F)F)CC5)n4)ccc3C(=O)NS2(=O)=O)C(C)(C)C1 (single isomer, unassigned) [Compound 151, 13,20,20-trimethyl-4-(3-{2-[1-(trifluoromethyl)cyclopropyl]ethoxy}-1H-pyrazol-1-yl)-10λ^6-thia-1,3,9,14,22-pentaazatetracyclo[16.2.1.111,14.02,7]docosa-2,4,6,11(22),12-pentaene-8,10,10-trione] | < 1000 nM | +++ (+++ is >60%)
CC1(C)C[C@H]2CCCn3ccc(n3)S(=O)(=O)NC(=O)c3ccc(-n4ccc(OCCC(C5CC5)C5CC5)n4)nc3N1C2 (single isomer, unassigned) [Compound 153, 4-[3-(3,3-dicyclopropylpropoxy)-1H-pyrazol-1-yl]-20,20-dimethyl-10λ^6-thia-1,3,9,14,22-pentaazatetracyclo[16.2.1.111,14.02,7]docosa-2,4,6,11(22),12-pentaene-8,10,10-trione] | > 3000 nM | + (+ is <30%)
CC1(C)C[C@H]2CCCn3ccc(n3)S(=O)(=O)NC(=O)c3ccc(-n4ccc(OCCC(C5CC5)C5CC5)n4)nc3N1C2 (single isomer, unassigned) [Compound 154, 4-[3-(3,3-dicyclopropylpropoxy)-1H-pyrazol-1-yl]-20,20-dimethyl-10λ^6-thia-1,3,9,14,22-pentaazatetracyclo[16.2.1.111,14.02,7]docosa-2,4,6,11(22),12-pentaene-8,10,10-trione] | < 1000 nM | +++ (+++ is >60%)
CC1(C)C[C@@H]2CN1c1nc(-n3ccc(OCCCC4(C(F)(F)F)CC4)n3)ccc1C(=O)NS(=O)(=O)c1cccc(n1)NCCO2 (single isomer, unassigned) [Compound 159, 12,12-dimethyl-8-(3-{3-[1-(trifluoromethyl)cyclopropyl]propoxy}-1H-pyrazol-1-yl)-15-oxa-2λ^6-thia-3,9,11,18,23-pentaazatetracyclo[17.3.1.111,14.05,10]tetracosa-1(23),5,7,9,19,21-hexaene-2,2,4-trione] | > 3000 nM | + (+ is <30%)
CC1(C)C[C@@H]2CN1c1nc(-n3ccc(OCCCC4(C(F)(F)F)CC4)n3)ccc1C(=O)NS(=O)(=O)c1cccc(n1)NCCO2 (single isomer, unassigned) [Compound 160, 12,12-dimethyl-8-(3-{3-[1-(trifluoromethyl)cyclopropyl]propoxy}-1H-pyrazol-1-yl)-15-oxa-2λ^6-thia-3,9,11,18,23-pentaazatetracyclo[17.3.1.111,14.05,10]tetracosa-1(23),5,7,9,19,21-hexaene-2,2,4-trione] | < 1000 nM | +++ (+++ is >60%)
CC1(C)C[C@@H]2CN1c1nc(-n3ccc(OCCC(C4CC4)C4CC4)n3)ccc1C(=O)NS(=O)(=O)c1cccc(n1)NCCO2 (single isomer, unassigned) [Compound 162, 8-[3-(3,3-dicyclopropylpropoxy)-1H-pyrazol-1-yl]-12,12-dimethyl-15-oxa-2λ^6-thia-3,9,11,18,23-pentaazatetracyclo[17.3.1.111,14.05,10]tetracosa-1(23),5,7,9,19,21-hexaene-2,2,4-trione] | 1000 to 3000 nM | ++ (++ is 30-60%)
CC1(C)C[C@@H]2CN1c1nc(-n3ccc(OCCC(C4CC4)C4CC4)n3)ccc1C(=O)NS(=O)(=O)c1cccc(n1)NCCO2 (single isomer, unassigned) [Compound 163, 8-[3-(3,3-dicyclopropylpropoxy)-1H-pyrazol-1-yl]-12,12-dimethyl-15-oxa-2λ^6-thia-3,9,11,18,23-pentaazatetracyclo[17.3.1.111,14.05,10]tetracosa-1(23),5,7,9,19,21-hexaene-2,2,4-trione] | < 1000 nM | ++ (++ is 30-60%)
CC1(C)C[C@H]2CCCn3ccc(n3)S(=O)(=O)NC(=O)c3ccc(-n4ccc(OCCCC5(C(F)(F)F)CC5)n4)nc3N1C2 (single isomer, unassigned) [Compound 165, 20,20-dimethyl-4-(3-{3-[1-(trifluoromethyl)cyclopropyl]propoxy}-1H-pyrazol-1-yl)-10λ^6-thia-1,3,9,14,22-pentaazatetracyclo[16.2.1.111,14.02,7]docosa-2(7),3,5,11(22),12-pentaene-8,10,10-trione] | > 3000 nM | + (+ is <30%)
CC1(C)C[C@H]2CCCn3ccc(n3)S(=O)(=O)NC(=O)c3ccc(-n4ccc(OCCCC5(C(F)(F)F)CC5)n4)nc3N1C2 (single isomer, unassigned) [Compound 166, 20,20-dimethyl-4-(3-{3-[1-(trifluoromethyl)cyclopropyl]propoxy}-1H-pyrazol-1-yl)-10λ^6-thia-1,3,9,14,22-pentaazatetracyclo[16.2.1.111,14.02,7]docosa-2(7),3,5,11(22),12-pentaene-8,10,10-trione] | < 1000 nM | +++ (+++ is >60%)
